{
  "source": "paper PMC5686178",
  "about": "“Antimicrobial peptides in frog poisons constitute a molecular toxin delivery system against predators” (Nature Communications, 2017)",
  "key": {"other vertebrates": {"system": "other vertebrates", "details": "intravenous, ref [9],[21],[22], cited from earlier work"}, "[1]": {"details": "ref [8],[23]; cited from earlier work", "text": "As the main model for our study, we used a peptide pair composed of the systemic toxin caerulein, and the AMP caerulein precursor fragment-3 (CPF), both of which are key constituents of the skin secretion of the frog Xenopus laevis [18]–[20] (Fig. 1b). Caerulein is a potent ligand of cholecystokinin receptors expressed in the vertebrate intestine, pancreas, and brain[9], and at sufficiently high concentrations, may induce nausea, hypotension, intestinal cramps, vomiting, and diarrhea[9],[21],[22]. Even in the intestine, the target receptors are only accessible by means of epithelial absorption ..."}, "Caco-2 monolayers [2]": {"system": "Caco-2 monolayers", "experiment": "Transepithelial toxin passage across Caco-2 monolayers (ELISA)", "details": "60 min"}, "Caco-2 monolayers [3]": {"system": "Caco-2 monolayers", "experiment": "Scanning electron microscopy of Caco-2 monolayers", "format": "cell-based, Human", "details": "fixation 5 min after administration", "method": "Caco-2 cells were seeded on glass coverslips that were coated with rat tail collagen 1 (Sigma-Aldrich) the day before. The effect of four treatments (100 µM CPF, 100 µM caerulein, 100 µM CPF + caerulein, and a negative control) on differentiated Caco-2 monolayers was visualized. Chemical fixation was performed in 12-well culture plates 5 min after peptide administration (700 µl of solution in all treatments). For fixation, plate wells were filled with 1 ml 2,5% glutaraldehyde in 0.05 M sodium cacodylate buffer (pH 7.4; 37 °C) for 20 min, and subsequently washed twice with the same buffer. Postfixation was performed with 1% osmium tetroxide for 30 min, followed by three rinses with double-distilled water. Dehydration was carried out using a graded hexylene glycol series: 30; 50; 70; and 90%, taking 15 min for each step. Cells were rinsed three times for 10 min with 100% hexylene glycol, and then two more times for 10 min with 100% ethanol. Critical-point drying of coverslips was done using a Balzers union CPD020. Dried coverslips were mounted on carbon-coated stubs with double-sided conductive tape. Gold coating happened with a Jeol 1200JFC fine coater, after which coverslips were examined with a Jeol JSM-840 scanning electron microscope operating at 12 kV."}, "EpiOral 3D tissues": {"system": "EpiOral 3D tissues", "experiment": "Transepithelial toxin passage across EpiOral multilayered oral epithelial model (ELISA)", "format": "in vitro ADME", "details": "8-11 stacked cell layers, 60 min, n = 8, vs caerulein alone"}, "[4]": {"details": "Caco-2 monolayer, apical to basolateral, 20 nmol caerulein + 20 nmol CPF (100 µM both) apical, ELISA, n = 9"}},
  "note": "Where a SMILES comes first, the peptide text is derived from it. Where no end group is shown, it is not given here. [ ]: non-standard residue; d: D form. sY = N[C@@H](Cc1ccc(OS(=O)(=O)O)cc1)C(=O)O; pGlu = O=C1CC[C@@H](C(=O)O)N1",
  "data": [
    {"compound": "CSCC[C@H](NC(=O)[C@H](Cc1c[nH]c2ccccc12)NC(=O)CNC(=O)[C@@H](NC(=O)[C@H](Cc1ccc(OS(=O)(=O)O)cc1)NC(=O)[C@H](CC(=O)O)NC(=O)[C@H](CCC(N)=O)NC(=O)[C@@H]1CCC(=O)N1)[C@@H](C)O)C(=O)N[C@@H](CC(=O)O)C(=O)N[C@@H](Cc1ccccc1)C(N)=O", "note": "[caerulein] ([pGlu]QD[sY]TGWMDF-NH2)", "values": [
      {"measurement": "Intravenously injected dose that caused severe sickness, molar", "setting": "other vertebrates; converted from 1 μg/kg BW", "value": 0.74, "unit": "pmol/g BW"},
      {"measurement": "Intravenously injected dose that caused severe sickness", "setting": "other vertebrates", "value": 1, "unit": "μg/kg BW"},
      {"measurement": "Half-life in the bloodstream", "setting": "[1]", "value": "up to 45 min"},
      {"measurement": "Transepithelial passage of caerulein, % of applied dose at basolateral side", "setting": "Caco-2 monolayers [2]; Caco-2 monolayer on collagen-coated transwell 0.4 µm, apical to basolateral, caerulein alone 100 µM (20 nmol) apical, apical 200 µL / basolateral 1000 µL, ELISA, n = 9", "value": "0.3 – 1%"},
      {"measurement": "Transepithelial passage of caerulein, % of applied dose at basolateral side, CPF co-administered", "setting": "Caco-2 monolayers [2]; [4]", "value": "2.3–6.8%"},
      {"measurement": "Transepithelial passage of caerulein, amount at basolateral side, CPF co-administered", "setting": "Caco-2 monolayers [2]; [4]", "value": "0.45 to 1.36", "unit": "nmol"},
      {"measurement": "Transepithelial passage of caerulein, amount at basolateral side", "setting": "Caco-2 monolayers [2]; Caco-2 monolayer, apical to basolateral, caerulein alone 100 µM (20 nmol) apical, ELISA, n = 9", "value": "0.06 to 0.20", "unit": "nmol"},
      {"measurement": "Damage to Caco-2 monolayers by SEM, toxin alone", "setting": "Caco-2 monolayers [3]; 100 µM caerulein", "value": "does not damage Caco-2 monolayers"}
    ]},
    {"compound": "GFGSFLGKALKAALKIGANALGGSPQQ [CPF, caerulein precursor fragment-3]", "values": [
      {"measurement": "Increase in rate of transepithelial passage of caerulein by co-administered CPF", "setting": "Caco-2 monolayers [2]; Caco-2 monolayer, 100 µM both, on average, vs caerulein alone", "value": "near sevenfold increase"},
      {"measurement": "Damage to Caco-2 monolayers by SEM, CPF present", "setting": "Caco-2 monolayers [3]; 100 µM CPF + caerulein", "value": "abundant intercellular ruptures in the monolayer"},
      {"measurement": "Increase in caerulein passage by co-administered CPF, oral multilayer model", "setting": "EpiOral 3D tissues", "value": "nearly fivefold increase"}
    ]},
    {"compound": "GIGASILSAGKSALKGLAKGLAEHFAN-NH2 [BLP, bombinin-like peptide 1]", "values": [
      {"measurement": "Enhancement of transepithelial passage of bombesin by co-administered BLP", "setting": "Caco-2 monolayers [2]; Caco-2 monolayer, 100 µM both apical, ELISA, n = 9, vs toxin alone", "value": "~ 4.5 times"}
    ]}
  ]
}
